A melting point compilation (Tetko et al.; mined from patent text by program, amines drawn as free bases though some values may be those of a salt)

First: CC(C)(C)OC(=O)N1CCCC1C(=O)NCCC(N)=O (centres undefined)
Second: CCC(=O)N[C@@H](C)C(=O)N1CCC[C@H]1C(=O)O
The melting point of the first is higher: 175 °C for the first, 169 to 171 °C for the second.

Compared with `CNC(=S)N1CCc2ncn(C)c2C1`, `CN1Cc2c(Br)ncn2-c2cccc(Cl)c2C1=O` is lower in melting point: 235 °C for the first, 178 to 179 °C for the second.

First: O=C(c1ccc(C2CCCCC2)cc1)N1Cc2cccn2Cc2ccccc21
Second: Cc1cc(C(=O)N2Cc3ccc(C(=O)N4CCN(C)CC4)n3Cc3ccccc32)ccc1C1=CCCc2ccccc21
The melting point of the first is higher: 127 to 129 °C for the first, 108 °C for the second.

First: CC(C)C[C@H](N)C(=O)NCCCCCNC(=O)OCc1ccccc1
Second: O=C(CCCCCNC(=O)[C@H](Cc1c[nH]c2ccccc12)NC(=O)Cc1ccc2ccccc2c1)NO
The melting point of the first is higher: 145 to 146 °C for the first, 112 to 114 °C for the second.

Compared with `Oc1ccc(C2=CCCCC2)cc1`, `O=C1CCSc2cc(-c3ccccc3)ccc21` is lower in melting point: 115 to 119 °C for the first, 85 to 87 °C for the second.

Compared with `NC(=Nc1cccc(CNCCC(=O)Nc2ccc3c(c2)CCN3Cc2cccc3ccccc23)c1)c1cccs1`, `CC1(C)CCCC(C)(C)N1Cc1ccc2cc(NC(=O)c3ccc(-c4ccccc4)cc3)ccc2n1` is higher in melting point: 185 to 187 °C for the first, 200 to 201 °C for the second.

First: CCN(CC)CCOc1ccc(C2c3cc(OC)ccc3-c3ccc4ccccc4c32)cc1 (centres undefined)
Second: COc1ccc2c(=O)c(-c3ccccc3)c(SCc3ccccn3)oc2c1
The melting point of the first is lower: 109 to 115 °C for the first, 168 to 169 °C for the second.

Compared with `O=C(O)c1ccc(CCCc2c(CCNS(=O)(=O)Cc3ccc(Cl)c(Cl)c3)n(C(c3ccccc3)c3ccccc3)c3ccc(Cl)cc23)cc1`, `CC(C)C[C@H](NC(=O)CCCc1ccccc1)C(=O)N[C@@H](Cc1ccccc1)C(=O)CSCc1ccco1` is lower in melting point: 190 °C for the first, 106 to 108 °C for the second.

Compared with `Cc1ccc(NC(=O)c2cccnc2Oc2cccc(Cl)c2)cc1`, `Cc1cc(C(=O)O)c(NC(=O)Nc2ccc(Oc3ccccc3)cc2)s1` is higher in melting point: 140 to 143 °C for the first, 213 to 215 °C for the second.

Compared with `Cc1cc(F)ccc1NC(=O)CCC#Cc1cccc(CF)n1`, `COc1ccc(C(=O)Nc2ccc3ccc(Oc4cccc(F)c4)nc3n2)cc1` is higher in melting point: 122 to 125 °C for the first, 151 °C for the second.

Compared with `CCOC(=O)C1(C(N)=O)OCCO1`, `CCOC(=O)C1=C[C@H](O)[C@H](NC(C)=O)[C@@H](N=[N+]=[N-])C1` is lower in melting point: 99 to 100 °C for the first, 51 to 53 °C for the second.

First: CCCCOC(=O)c1ccc(N2CCN(c3ccc(CC(C)O)cc3)CC2)cc1 (centres undefined)
Second: CCOC(=O)c1ccc(-c2c[nH]c(-c3ccc4c(c3)C(C)(C)CCC4(C)C)n2)cc1
The melting point of the first is lower: 85 to 86 °C for the first, 186 to 188 °C for the second.

First: Cn1cc(-c2cccc(Cl)c2)c(=O)c(-c2cccc(C(F)(F)F)c2)c1
Second: CN1C(=O)CC[C@]2(C)c3ccc(-c4ccc(C(F)(F)F)cc4)cc3CC[C@@H]12
The melting point of the first is higher: 133 to 135 °C for the first, 86 to 89 °C for the second.

Compared with `C[Si](C)(C)c1cccc(C[C@@H]2N[C@@H](c3ccccc3)[C@@H](c3ccccc3)OC2=O)c1`, `CCOC(=O)CCCCCn1c(-c2ccccc2)c(-c2ccccc2)n(-c2ccccc2)c1=O` is higher in melting point: 94 to 95 °C for the first, 104 to 106 °C for the second.

First: CCOC(=O)c1[nH]c(C)c(CC)c1CC
Second: CCOC(=O)c1[nH]c(C)c(C)c1O
The melting point of the first is lower: 76 to 77 °C for the first, 111 to 113 °C for the second.

Compared with `CCCCc1nc(Cl)c(C=O)n1Cc1cccc2c1ncn2-c1ccccc1C#N`, `c1ccc(-c2nsc3nc4ccccc4n23)nc1` is higher in melting point: 117 to 135 °C for the first, 173 to 174 °C for the second.

`CCOC(=O)CCCn1c(Nc2ccc(Cl)cc2)nc2c(Cl)ccc(C(CC)CC)c21` and `COC(=O)c1ccc(-c2nnc(CSCCOc3ccc(Cl)cc3Cl)o2)cc1` cannot be ordered by melting point: 149 to 150 °C for the first, 148 to 152 °C for the second.

First: Clc1ccc2c(c1)C(c1ccccc1)=NCc1nnc(Br)n1-2
Second: Cc1cc(-c2nc3cccnn3c2-c2ccnc(N)c2)ccc1F
The melting point of the first is higher: 206 °C for the first, 179 to 180 °C for the second.

Compared with `CC1=NC(=NOC(=O)NC2CC2)SC1(C)C`, `CC1CCC2C3CC(=O)C4=CC(=O)CCC4(C)C3CCC12C` (centres undefined) is higher in melting point: 86 to 89 °C for the first, 94 to 95 °C for the second.

First: CC(C)(C)OC(=O)CCc1ccc(O)cc1CN
Second: CC(C)(C(N)=O)c1cn2nc(Cl)ccc2n1
The melting point of the first is lower: 154 to 157 °C for the first, 194 to 195 °C for the second.

First: CC(=O)Nc1ccc(Oc2ccc3nc(COc4ccc(CC5SC(=O)NC5=O)cc4)n(C)c3c2)cc1 (centres undefined)
Second: COc1ccc(CN2C(=O)C3(COc4cc(OC(F)(F)F)ccc43)c3ccccc32)cc1 (centres undefined)
The melting point of the first is higher: 92.2 to 95 °C for the first, 82 to 84 °C for the second.

First: CCOc1cc(-c2cc(C(F)(F)F)n3ncc(C(=O)Nc4cccc(S(=O)(=O)NC5CC5)c4)c3n2)ccc1C(F)(F)F
Second: CN(C1CCN(CCC(F)(F)F)CC1)S(=O)(=O)c1ccc(Nc2nccc(Nc3ccc(F)c(F)c3)n2)cc1
The melting point of the first is higher: 225 °C for the first, 202 to 203 °C for the second.

First: COC(=O)C=C(Nc1coc2ccc(Cl)cc2c1=O)C(=O)OC
Second: CCOc1ccccc1C=C1CCc2c1oc1ccc(C(=O)OC)cc1c2=O
The melting point of the first is lower: 158 to 160 °C for the first, 189 to 192 °C for the second.

First: CCn1c(-c2ccc(OC)c(OC)c2)cc(=O)n(CC)c1=O
Second: COc1cc(C)c(C(=O)c2c(Cl)cccc2Cl)cc1OC(C)(C)C
The melting point of the first is higher: 104 to 107 °C for the first, 102 °C for the second.

First: N#Cc1ccc(OCc2ccncc2)cc1OC(C(=O)O)c1ccccc1Cl (racemic)
Second: CN(C)C(=O)n1cc(C(=O)C2CSC(c3cccnc3)N2C=O)c2ccc(OCc3ccccc3)cc21 (centres undefined)
The melting point of the first is higher: 225 to 226 °C for the first, 90 °C for the second.

First: CC(C)(C)c1ccc(-c2nc3ccc(C(=O)O)cc3[nH]2)cc1
Second: Cc1nc(-c2ccc3c(=O)n(CC(C)C)c(CNC(=O)OC(C)(C)C)c(-c4ccccc4)c3c2)sc1C#N
The melting point of the first is higher: 212 °C for the first, 209 to 211 °C for the second.

Compared with `CO/C=C(/C(=O)OC)n1cccc1C=O`, `C=C(OCC)c1cc(C(=O)OC)c(NC(C)=O)cc1C(F)(F)F` is higher in melting point: 58 to 59 °C for the first, 65 to 73 °C for the second.

First: CS(=O)(=O)NCCCCn1c(CO)nc2c(N)nc3ccccc3c21
Second: COCCc1nc2c(N)nc3c(c2n1CCOCCNS(C)(=O)=O)CCCC3
The melting point of the first is higher: 216 to 219 °C for the first, 151 to 153 °C for the second.

First: Cn1c(C(F)(F)F)cc(=O)n(-c2cc(OCc3ccccc3Cl)c(Cl)cc2F)c1=O
Second: CC(C)(C)c1ccccc1-n1cnnc1C(F)(F)F
The melting point of the first is higher: 126 to 129 °C for the first, 120 °C for the second.

First: CC1=NN(c2c(Cl)cc(Cl)cc2Cl)C(=O)C1
Second: Cc1c(Br)c(=O)n(C2CCCCC2)c(=O)n1N=Cc1ccc(Cl)c(Cl)c1
The melting point of the first is lower: 178 to 180 °C for the first, 188 to 189 °C for the second.

Going from `CC(=O)Nc1cc(C)c(O)cc1C` to `CC(=O)C(C)(C)Cc1cc(C(C)(C)C)c(O)c(C(C)(C)C)c1`, the melting point falls from 183 °C to 75 °C.

First: CC1(c2ccc(OCc3ccccc3)c(C=O)c2)OCCO1
Second: COc1ccc(OC)c(NC(=O)NCC2(c3ccccc3)CCCCC2)c1
The melting point of the first is lower: 78 to 80 °C for the first, 164 to 166 °C for the second.

First: CN1CCC(c2nc(-c3ccncc3)c(-c3ccc(F)cc3)[nH]2)CC1
Second: COc1ccc(Nc2nccc(-c3ccncc3)n2)cc1
The melting point of the first is higher: 259 to 261 °C for the first, 174 to 175 °C for the second.

First: COc1cc(Nc2c(C#N)cnc3cc4cc(OC)c(OC)cc4cc23)c(C)cc1Cl
Second: COc1cc2c(c(OC(=O)Cc3ccccc3)c1OC)=NC(=O)C(=O)N=2
The melting point of the first is lower: 171 to 173 °C for the first, 298 to 300 °C for the second.

First: CCn1ncc2c1ncc1c(OCCC(C)C)nc3ncnn3c12
Second: CCNc1nc(=O)n(Cc2ccc(OC)c(OC3CCCC3)c2)c2nc(C(C)C)[nH]c12
The melting point of the first is higher: 140 to 142 °C for the first, 110 to 115 °C for the second.

First: CCN(c1ccc(C)c2cc(-c3ncc(CN4CCN(C(C)=O)CC4)s3)[nH]c12)S(=O)(=O)c1cccs1
Second: Cc1c(SCCCN2CCN(Cc3ccncc3)CC2)ccnc1CNc1cnc2ccccc2c1
The melting point of the first is higher: 157 to 158 °C for the first, 145 to 150 °C for the second.

Compared with `NC(=O)c1cc2c(cc1OCC1CCCCC1)CCCCC2N` (centres undefined), `Nc1cc(=O)n(CC2CCCCC2)c(=S)n1CC1CCCCC1` is lower in melting point: 170 to 172 °C for the first, 147 to 150 °C for the second.

Compared with `COc1ccccc1-c1cn(-c2ccccc2)nc1O`, `CCOC(=O)c1sc(-c2cccn2C)nc1-c1ccccc1` is lower in melting point: 165 to 167 °C for the first, 86 to 89 °C for the second.

First: O=C(CBr)c1ccc(Br)c(Br)c1
Second: O=C(CCCl)c1ccc2c(c1)Cc1cc(C(=O)CCCl)ccc1S2
The melting point of the first is lower: 60 to 61 °C for the first, 105 to 107 °C for the second.

First: CC(C)N(CCC(C(N)=O)(c1ccccc1)C1CCCCN1)C(C)C (centres undefined)
Second: CN(C)CCCOc1ccccc1C=NCC(N)=O
The melting point of the first is higher: 107 to 108 °C for the first, 71 to 73 °C for the second.

First: CCN1CC(CCN(C)C)Oc2ncccc2C1=S (centres undefined)
Second: CN(C)Cc1cccc(OCCCNc2nc(N=Cc3cccnc3)nn2C)c1
The melting point of the first is lower: 73 °C for the first, 92 to 93 °C for the second.

Compared with `CCCCCCCCCCCCCCCCCCOc1cc(OCCCCC(=O)O)cc(N(CC(=O)O)CC(=O)O)c1`, `CCCCCCCCCCCCCCCC(=O)Nc1cc(C(=O)O)ccc1C` is higher in melting point: 126 to 128 °C for the first, 238 to 240 °C for the second.

First: CC(C)=NNc1ccc(OCC(C)(C)NCC(O)COc2ccccc2C#N)nn1 (centres undefined)
Second: Nc1ccccc1SCn1ccccc1=O
The melting point of the first is lower: 126 to 128 °C for the first, 130 to 133 °C for the second.

Compared with `Cc1ccccc1C1CC(=O)CC(c2ccccc2C)N1C` (centres undefined), `Cc1cccc2sc(-c3ccccn3)nc(=O)c12` is lower in melting point: 155 to 157 °C for the first, 151 °C for the second.

First: Nc1nc(CSCCN2CCN(C(c3ccccc3)c3ccccc3)CC2)cs1
Second: c1cncc(-c2nc(COc3ccc(CCCn4ccnc4)cc3)cs2)c1
The melting point of the first is higher: 159 to 161 °C for the first, 67 to 68 °C for the second.

First: CC(C)(c1ccc(Oc2cccc(N)c2)cc1)c1cccc(C(C)(C)c2ccc(Oc3cccc(N)c3)cc2)c1
Second: COC(=O)c1ccc2c3cccc4cccc(c5ccc(C(=O)OC)c1c25)c43
The melting point of the first is lower: 94 to 96 °C for the first, 256 to 257 °C for the second.

Compared with `N=C(N)NC(=O)c1nc(F)c(N)nc1N`, `COC(=O)Cc1sc(SCc2cc(O)nc(C)n2)nc1C` is lower in melting point: 233 °C for the first, 130 to 132 °C for the second.

First: CCCCOCCC(C)CCCC(C)(C)c1cc(O)c(C(C)(C)CCCC(C)CCOCCCC)cc1O (centres undefined)
Second: CC(=O)OC(c1cccnc1)c1c(O)c(=O)ccn1C (centres undefined)
The melting point of the first is lower: 86 to 89 °C for the first, 153 to 154 °C for the second.

First: Cc1ccc(S(=O)(=O)Nc2ccc3c(=O)c4c(sc3c2)CC(C)(C)CC4)cc1
Second: COc1ccc2[nH]c(SCc3ncnc(N4CCOCC4)c3C)nc2c1
The melting point of the first is higher: 279 °C for the first, 129 to 131 °C for the second.

`[N-]=[N+]=NC1CC(n2cnc3c(NCC4CC4)nc(N)nc32)OC1CO` (centres undefined) showed a melting point of 104 to 106 °C.
